What was measured:
Botrytis cinerea = test: Example P: in vivo preventive test on Botrytis cinerea (grey mould), gherkin plants; conditions: 500 ppm of active ingredient, grading 4 to 5 days after contamination
Description: In Vivo Preventive Test on Botrytis cinerea (Grey Mould) […] Gherkin plants (“Vert petit de Paris” variety), sown in starter cups on a 50/50 peat soil pozzolana substrate and grown at 24° C. are treated at the Z11 cotyledon stage by spraying with the active ingredient prepared as described above. Plants, used as controls, are treated with the mixture of acetone/tween/DMSO/water not containing the active material. After 24 hours, the plants are contaminated by spraying the cotyledons with an aqueous suspension of cryopreserved Botrytis cinerea spores (50 000 spores per mL). The spores are suspended in a nutrient solution composed of 10 g/L of PDB, 50 g/L of D-Fructose, 2 g/L of NH4NO3 and 1 g/L of KH2PO4. The contaminated gherkin plants are incubated at 17° C. and at 90% relative humidity. Grading (% of efficacy) is carried out 4 to 5 days after the contamination, in comparison with the control plants.

[1] = log P by HPLC on reversed-phase column (C 18), EEC Directive 79831 Annex V.A8; format: physicochemical; conditions: HPLC reversed-phase C 18, 40° C., 0.1% aqueous formic acid and acetonitrile gradient; several values = mixture of two or more isomers
Description: In table 1, the log P values were determined in accordance with EEC Directive 79831 Annex V.A8 by HPLC (High Performance Liquid Chromatography) on a reversed-phase column (C 18), using the method described below: Temperature: 40° C.; Mobile phases: 0.1% aqueous formic acid and acetonitrile; linear gradient from 10% acetonitrile to 90% acetonitrile. Calibration was carried out using unbranched alkan-2-ones (comprising 3 to 16 carbon atoms) with known log P values (determination of the log P values by the retention times using linear interpolation between two successive alkanones). lambda-max-values were determined using UV-spectra from 200 nm to 400 nm and the peak values of the chromatographic signals.

Pyrenophora teres [2] = test: Example F: in vivo preventive test on Pyrenophora teres (barley), acetone/tween/DMSO preparation; conditions: 500 ppm of active ingredient, barley, grading 14 days after contamination
Description: In Vivo Preventive Test on Pyrenophora teres (Barley) […] Barley plants (“Plaisant” variety), sown in starter cups on a 50/50 peat soil pozzolana substrate and grown at 22° C., are treated at the 1 leaf stage (10 cm height) by spraying with the active ingredient prepared as described above. Plants, used as controls, are treated with the mixture of acetone/tween/DMSO/water not containing the active material. After 24 hours, the plants are contaminated by spraying the leaves with an aqueous suspension of Pyrenophora teres spores (12 000 spores per mL). The spores are collected from a 12-day-old culture. […] Grading (% of efficacy) is carried out 14 days after the contamination, in comparison with the control plants.

Alternaria brassicae = test: Example D: in vivo preventive test on Alternaria brassicae (leaf spot on radish); conditions: 500 ppm of active ingredient, grading 6 days after contamination
Description: In Vivo Preventive Test on Alternaria brassicae (Leaf Spot on Radish) […] Radish plants (“Pernod Clair” variety), sown in starter cups on a 50/50 peat soil pozzolana substrate and grown at 17° C., are treated at the cotyledon stage by spraying with the active ingredient prepared as described above. Plants, used as controls, are treated with the mixture of acetone/tween/DMSO/water not containing the active material. After 24 hours, the plants are contaminated by spraying the cotyledons with an aqueous suspension of Alternaria brassicae spores (50 000 spores per mL). The spores are collected from a 15-day-old culture. The contaminated radish plants are incubated at 20° C. and at 100% relative humidity. Grading (% of efficacy) is carried out 6 days after the contamination, in comparison with the control plants.

Puccinia recondita = test: Example M: in vivo preventive test on Puccinia recondita (brown rust on wheat); conditions: 500 ppm of active ingredient, grading 12 days after contamination
Description: In Vivo Preventive Test on Puccinia recondita (Brown Rust on Wheat) […] Wheat plants (“Scipion” variety), sown in starter cups on a 50/50 peat soil pozzolana substrate and grown at 22° C., are treated at the 1 leaf stage (10 cm height) by spraying with the active ingredient prepared as described above. Plants, used as controls, are treated with the mixture of acetone/tween/DMSO/water not containing the active material. After 24 hours, the plants are contaminated by spraying the leaves with an aqueous suspension of Puccinia recondite spores (100 000 spores per mL). The spores are collected from an infected plant and are suspended in water containing 2.5 mL/L of Tween 80 at 10%. […] Grading (% of efficacy) is carried out 12 days after the contamination, in comparison with the control plants.

Septoria tritici = test: Example I: in vivo preventive test on Septoria tritici (wheat), acetone/tween/DMSO preparation; conditions: 500 ppm of active ingredient, grading 24 days after contamination
Description: In Vivo Preventive Test on Septoria tritici (Wheat) […] Wheat plants (“Scipion” variety), sown in starter cups on a 50/50 peat soil pozzolana substrate and grown at 22° C., are treated at the 1 leaf stage (10 cm height) by spraying with the active ingredient prepared as described above. Plants, used as controls, are treated with the mixture of acetone/tween/DMSO/water not containing the active material. After 24 hours, the plants are contaminated by spraying the leaves with an aqueous suspension of cryopreserved Septoria tritici spores (500 000 spores per mL). The contaminated wheat plants are incubated for 72 hours at 18° C. and at 100% relative humidity, and then for 21 days at 90% relative humidity. Grading (% of efficacy) is carried out 24 days after the contamination, in comparison with the control plants.

Sphaerotheca fuliginea = test: Example B: in vivo preventive test on Sphaerotheca fuliginea (powdery mildew on cucurbits), gherkin plants; conditions: 500 ppm of active ingredient, grading 12 days after contamination
Description: In Vivo Preventive Test on Sphaerotheca fuliginea (Powdery Mildew on Cucurbits) […] Gherkin plants (“Vert petit de Paris” variety), sown in starter cups on a 50/50 peat soil-pozzolana substrate and grown at 24° C. are treated at the Z11 cotyledon stage by spraying with the active ingredient prepared as described above. Plants, used as controls, are treated with the mixture of acetone/tween/DMSO/water not containing the active material. After 24 hours, the plants are contaminated by spraying the cotyledons with an aqueous suspension of Sphaerotheca fuliginea spores (100 000 spores per mL). The spores are collected from infected plants.

Uromyces appendiculatus = test: Example Q: in vivo preventive test on Uromyces appendiculatus (bean rust); conditions: Uromyces appendiculatus on bean plants, 500 ppm of active ingredient, grading 11 days after contamination
Description: In Vivo Preventive Test on Uromyces appendiculatus (Bean Rust) […] Bean plants (“Saxa” variety), sown in starter cups on a 50/50 peat soil pozzolana substrate and grown at 24° C., are treated at the 2 leaf stage (9 cm height) by spraying with the active ingredient prepared as described above. Plants, used as controls, are treated with the mixture of acetone/tween/DMSO/water not containing the active material. After 24 hours, the plants are contaminated by spraying the leaves with an aqueous suspension of Uromyces appendiculatus spores (150 000 spores per mL). The spores are collected from infected plants and are suspended in water containing 2.5 mL/L of Tween 80 at 10%. […] Grading (% of efficacy) is carried out 11 days after the contamination, in comparison with the control plants.

Alternaria solani = test: Example C: in vivo preventive test on Alternaria solani (tomato); conditions: 500 ppm of active ingredient, evaluated 7 days after inoculation
Description: (§1) In Vivo Preventive Test on Alternaria solani (Tomato) Solvent: 49 parts by weight of N,N-dimethylformamide Emulsifier: 1 part by weight of alkylarylpolyglycolether To produce a suitable preparation of active compound, 1 part by weight of active compound is mixed with the stated amounts of solvent and emulsifier, and the concentrate is diluted with water to the desired concentration. To test for preventive activity, young plants are sprayed with the preparation of active compound at the stated rate of application. One day after this treatment, the plants are inoculated with an aqueous spore suspension of Alternaria solani. The plants remain for one day in an incubation cabinet at approximately 22° C. and a relative atmospheric humidity of 100%. Then the plants are placed in an incubation cabinet at approximately 20° C. and a relative atmospheric humidity of 96%.

Pyrenophora teres [3] = test: Example E: in vivo preventive test on Pyrenophora teres (barley), DMF/emulsifier preparation; conditions: 500 ppm of active ingredient, evaluated 7-9 days after inoculation
Description: as §1, with “Pyrenophora teres (Barley)” for “Alternaria solani (Tomato)”, “alkylaryl polyglycol ether” for “alkylarylpolyglycolether”, “Pyrenophora teres.” for “Alternaria solani.”, “48 hours” for “one day”, “at” for “at approximately”, “100%.” for “100%. Then the plants are placed in an incubation cabinet at approximately 20° C. and a relative atmospheric humidity of 96%.”

Cn1nc(C(F)F)c(C(=O)NCC2C3CC4CC(C3)CC2C4)c1Cl (centres unmarked) [Example 91]
Efficacy (Botrytis cinerea): 99% | logP [1]: 3.90 | Efficacy (Pyrenophora teres [2]): 75% | Efficacy (Alternaria brassicae): 96%

Cn1nc(C(F)F)c(C(=O)N(C2CC2)C2CCC3CCCC32)c1F (centres unmarked) [Example 4]
Efficacy (Botrytis cinerea): 80% | logP [1]: 3.55 | Efficacy (Pyrenophora teres [2]): 100% | Efficacy (Puccinia recondita): 78% | Efficacy (Alternaria brassicae): 100%

Cn1nc(C(F)F)c(C(=O)N(C2CC2)C2CCCC3CCCCC32)c1Cl (centres unmarked) [Example 32]
logP [1]: 4.68 | Efficacy (Septoria tritici): 80% | Efficacy (Sphaerotheca fuliginea): 100% | Efficacy (Pyrenophora teres [2]): 97% | Efficacy (Puccinia recondita): 98% | Efficacy (Uromyces appendiculatus): 89% | Efficacy (Alternaria brassicae): 100%

Cn1cc(C(=O)NCC2C3CC4CC(C3)CC2C4)c(C(F)F)n1 (centres unmarked) [Example 92]
Efficacy (Botrytis cinerea): 100% | logP [1]: 3.27 | Efficacy (Septoria tritici): 83% | Efficacy (Alternaria brassicae): 96%

CC(C1CC2C=CC1C2)N(C(=O)c1cn(C)nc1C(F)F)C1CC1 (mixture of isomers) [Example 102]
Efficacy (Botrytis cinerea): 95% | Efficacy (Septoria tritici): 75% | Efficacy (Sphaerotheca fuliginea): 100% | Efficacy (Pyrenophora teres [2]): 100% | Efficacy (Puccinia recondita): 90% | Efficacy (Uromyces appendiculatus): 92% | Efficacy (Alternaria brassicae): 92%

CC(C1CC2C=CC1C2)N(C(=O)c1c(C(F)F)nn(C)c1F)C1CC1 (mixture of isomers) [Example 101]
Efficacy (Botrytis cinerea): 98% | Efficacy (Septoria tritici): 100% | Efficacy (Sphaerotheca fuliginea): 100% | Efficacy (Pyrenophora teres [2]): 100% | Efficacy (Alternaria brassicae): 92%

Cn1nc(C(F)F)c(C(=O)NCC2C3CC4CC(C3)CC2C4)c1F (centres unmarked) [Example 90]
Efficacy (Botrytis cinerea): 100% | logP [1]: 3.68 | Efficacy (Septoria tritici): 92% | Efficacy (Pyrenophora teres [2]): 81% | Efficacy (Alternaria brassicae): 90%

Cn1cc(C(=O)N(C2CC2)C2CCC3CCCC32)c(C(F)F)n1 (centres unmarked) [Example 6]
Efficacy (Botrytis cinerea): 100% | logP [1]: 3.02 | Efficacy (Sphaerotheca fuliginea): 100% | Efficacy (Pyrenophora teres [2]): 100% | Efficacy (Uromyces appendiculatus): 77% | Efficacy (Alternaria brassicae): 100%

CON(C(=O)c1c(C(F)F)nn(C)c1F)C1CCC2CCCCC21 (centres unmarked) [Example 10]
logP [1]: 3.72 | Efficacy (Septoria tritici): 93% | Efficacy (Sphaerotheca fuliginea): 100% | Efficacy (Pyrenophora teres [2]): 93% | Efficacy (Puccinia recondita): 100% | Efficacy (Uromyces appendiculatus): 100% | Efficacy (Alternaria brassicae): 100%

Cn1nc(C(F)F)c(C(=O)N(C2CC2)C2CCC3CCCC3C2)c1F (mixture of isomers) [Example 22]
Efficacy (Alternaria solani): 100% | Efficacy (Septoria tritici): 88% | Efficacy (Sphaerotheca fuliginea): 100% | Efficacy (Puccinia recondita): 100% | Efficacy (Uromyces appendiculatus): 100% | Efficacy (Alternaria brassicae): 93% | Efficacy (Pyrenophora teres [3]): 100%

CC1C(NC(=O)c2c(C(F)F)nn(C)c2F)CC2CC1C2(C)C (centres unmarked) [Example 50]
Efficacy (Botrytis cinerea): 99% | logP [1]: 3.61 | Efficacy (Septoria tritici): 97% | Efficacy (Sphaerotheca fuliginea): 90% | Efficacy (Pyrenophora teres [2]): 88% | Efficacy (Alternaria brassicae): 80%

Cn1nc(C(F)F)c(C(=O)N(C2CC2)C2CCC3CCCC32)c1F (centres unmarked) [Example 5]
logP [1]: 3.65 | Efficacy (Septoria tritici): 100% | Efficacy (Sphaerotheca fuliginea): 98% | Efficacy (Pyrenophora teres [2]): 97% | Efficacy (Puccinia recondita): 100% | Efficacy (Uromyces appendiculatus): 100% | Efficacy (Alternaria brassicae): 100%

CC1C(NC(=O)c2c(C(F)F)nn(C)c2F)CC2CC1C2(C)C (centres unmarked) [Example 49]
Efficacy (Botrytis cinerea): 98% | logP [1]: 3.61 | Efficacy (Pyrenophora teres [2]): 88% | Efficacy (Alternaria brassicae): 96%

Cn1cc(C(=O)N(CC2(Cc3ccccc3)CC3CCC2C3)C2CC2)c(C(F)F)n1 (centres unmarked) [Example 70]
Efficacy (Botrytis cinerea): 100% | logP [1]: 4.32 | Efficacy (Septoria tritici): 96% | Efficacy (Sphaerotheca fuliginea): 98% | Efficacy (Pyrenophora teres [2]): 79% | Efficacy (Uromyces appendiculatus): 88% | Efficacy (Alternaria brassicae): 91%

Cn1nc(C(F)F)c(C(=O)N(CC2CCCC3CCCCC32)C2CC2)c1Cl (centres unmarked) [Example 67]
logP [1]: 5.08 | Efficacy (Septoria tritici): 94% | Efficacy (Sphaerotheca fuliginea): 100% | Efficacy (Pyrenophora teres [2]): 98% | Efficacy (Puccinia recondita): 97% | Efficacy (Uromyces appendiculatus): 87% | Efficacy (Alternaria brassicae): 97%

Cn1nc(C(F)F)c(C(=O)NC2CCC3CCCC32)c1Cl (centres unmarked) [Example 3]
Efficacy (Botrytis cinerea): 95% | logP [1]: 3.09 | Efficacy (Septoria tritici): 92% | Efficacy (Puccinia recondita): 75% | Efficacy (Uromyces appendiculatus): 100% | Efficacy (Alternaria brassicae): 90%

Cn1cc(C(=O)N(C2CC2)C2CCC3CCCC32)c(C(F)F)n1 (centres unmarked) [Example 7]
logP [1]: 3.19 | Efficacy (Septoria tritici): 97% | Efficacy (Sphaerotheca fuliginea): 100% | Efficacy (Pyrenophora teres [2]): 100% | Efficacy (Puccinia recondita): 98% | Efficacy (Uromyces appendiculatus): 94% | Efficacy (Alternaria brassicae): 80%
